From ChEMBL document CHEMBL1201862, “PubChem BioAssay data set” (2004)
Activity calls are given as the source filed them.

Tests used:
[1] = molecular target: T1, Zinc finger protein mex-5 (Caenorhabditis elegans, UniProt Q9XUB2); test: potency of MEX-5 RNA-binding blockers – biochemical, C. elegans, fluorescence polarization, dose response (AID 1960)
T1 sequence (Q9XUB2 whole entry): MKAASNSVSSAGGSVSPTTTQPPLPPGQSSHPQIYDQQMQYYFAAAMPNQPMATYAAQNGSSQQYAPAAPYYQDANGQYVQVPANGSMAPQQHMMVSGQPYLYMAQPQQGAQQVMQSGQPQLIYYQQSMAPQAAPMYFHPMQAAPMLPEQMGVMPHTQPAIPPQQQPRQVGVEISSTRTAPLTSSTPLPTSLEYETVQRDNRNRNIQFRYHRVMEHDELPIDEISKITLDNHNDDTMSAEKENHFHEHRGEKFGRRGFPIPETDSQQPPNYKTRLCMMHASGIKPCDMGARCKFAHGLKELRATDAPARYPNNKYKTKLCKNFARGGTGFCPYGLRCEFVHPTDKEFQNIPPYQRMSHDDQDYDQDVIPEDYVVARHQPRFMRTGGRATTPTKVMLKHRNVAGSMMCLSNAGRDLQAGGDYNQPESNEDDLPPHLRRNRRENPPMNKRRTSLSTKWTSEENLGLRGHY

Keap1/Nrf2 = Keap1/Nrf2 (Homo sapiens, UniProt Q14145); test: disruptors of Keap1 binding to Nrf2 peptide – biochemical, fluorescence polarization, cherry-picked samples, dose response (AID 588683)
Keap1/Nrf2, sequence (Q16236 whole entry): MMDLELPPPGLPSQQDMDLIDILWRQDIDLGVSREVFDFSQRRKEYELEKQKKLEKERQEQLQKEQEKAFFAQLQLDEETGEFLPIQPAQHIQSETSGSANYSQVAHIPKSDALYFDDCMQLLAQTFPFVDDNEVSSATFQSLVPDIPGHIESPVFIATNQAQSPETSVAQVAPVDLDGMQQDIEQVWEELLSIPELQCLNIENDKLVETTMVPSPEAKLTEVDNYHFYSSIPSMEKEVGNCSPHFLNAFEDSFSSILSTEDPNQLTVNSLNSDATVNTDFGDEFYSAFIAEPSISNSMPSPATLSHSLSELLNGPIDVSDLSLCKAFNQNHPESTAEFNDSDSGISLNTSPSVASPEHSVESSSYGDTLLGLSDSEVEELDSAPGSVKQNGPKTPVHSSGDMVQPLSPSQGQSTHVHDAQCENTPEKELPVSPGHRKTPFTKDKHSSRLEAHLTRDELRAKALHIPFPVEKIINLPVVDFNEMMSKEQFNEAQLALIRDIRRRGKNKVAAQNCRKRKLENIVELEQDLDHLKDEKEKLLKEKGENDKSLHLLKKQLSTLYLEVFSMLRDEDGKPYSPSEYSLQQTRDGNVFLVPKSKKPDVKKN
Keap1/Nrf2, sequence (Q14145 whole entry): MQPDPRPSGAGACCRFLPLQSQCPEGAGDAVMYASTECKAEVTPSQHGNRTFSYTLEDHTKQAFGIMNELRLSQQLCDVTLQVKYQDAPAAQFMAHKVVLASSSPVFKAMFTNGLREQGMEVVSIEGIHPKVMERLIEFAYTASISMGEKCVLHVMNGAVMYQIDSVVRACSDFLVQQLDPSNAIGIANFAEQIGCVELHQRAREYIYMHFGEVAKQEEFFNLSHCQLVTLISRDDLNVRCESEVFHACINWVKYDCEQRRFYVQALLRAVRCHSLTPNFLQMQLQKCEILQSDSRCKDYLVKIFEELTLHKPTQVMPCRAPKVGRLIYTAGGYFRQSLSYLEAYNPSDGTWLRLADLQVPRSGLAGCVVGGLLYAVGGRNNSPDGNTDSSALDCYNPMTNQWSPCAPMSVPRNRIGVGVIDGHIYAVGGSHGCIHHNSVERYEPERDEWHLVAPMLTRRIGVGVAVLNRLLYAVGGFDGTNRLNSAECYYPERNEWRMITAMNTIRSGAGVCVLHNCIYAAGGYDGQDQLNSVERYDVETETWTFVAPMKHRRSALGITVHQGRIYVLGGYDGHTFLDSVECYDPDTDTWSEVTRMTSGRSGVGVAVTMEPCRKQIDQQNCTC

[2] = molecular target: Matrix metalloproteinase-14 (Homo sapiens, UniProt P50281); test: Dose Response confirmation of uHTS hits for a small molecule inhibitors of MT1-MMP activation in a fluorescence assay set 1.; type: functional
[3] = molecular target: T2, 1-phosphatidylinositol 4,5-bisphosphate phosphodiesterase beta-3 (Homo sapiens, UniProt Q01970); test: Fluorescence-based biochemical high throughput dose response assay to identify inhibitors of phospholipase C isozymes (PLC-B3).
T2 sequence (Q01970 whole entry): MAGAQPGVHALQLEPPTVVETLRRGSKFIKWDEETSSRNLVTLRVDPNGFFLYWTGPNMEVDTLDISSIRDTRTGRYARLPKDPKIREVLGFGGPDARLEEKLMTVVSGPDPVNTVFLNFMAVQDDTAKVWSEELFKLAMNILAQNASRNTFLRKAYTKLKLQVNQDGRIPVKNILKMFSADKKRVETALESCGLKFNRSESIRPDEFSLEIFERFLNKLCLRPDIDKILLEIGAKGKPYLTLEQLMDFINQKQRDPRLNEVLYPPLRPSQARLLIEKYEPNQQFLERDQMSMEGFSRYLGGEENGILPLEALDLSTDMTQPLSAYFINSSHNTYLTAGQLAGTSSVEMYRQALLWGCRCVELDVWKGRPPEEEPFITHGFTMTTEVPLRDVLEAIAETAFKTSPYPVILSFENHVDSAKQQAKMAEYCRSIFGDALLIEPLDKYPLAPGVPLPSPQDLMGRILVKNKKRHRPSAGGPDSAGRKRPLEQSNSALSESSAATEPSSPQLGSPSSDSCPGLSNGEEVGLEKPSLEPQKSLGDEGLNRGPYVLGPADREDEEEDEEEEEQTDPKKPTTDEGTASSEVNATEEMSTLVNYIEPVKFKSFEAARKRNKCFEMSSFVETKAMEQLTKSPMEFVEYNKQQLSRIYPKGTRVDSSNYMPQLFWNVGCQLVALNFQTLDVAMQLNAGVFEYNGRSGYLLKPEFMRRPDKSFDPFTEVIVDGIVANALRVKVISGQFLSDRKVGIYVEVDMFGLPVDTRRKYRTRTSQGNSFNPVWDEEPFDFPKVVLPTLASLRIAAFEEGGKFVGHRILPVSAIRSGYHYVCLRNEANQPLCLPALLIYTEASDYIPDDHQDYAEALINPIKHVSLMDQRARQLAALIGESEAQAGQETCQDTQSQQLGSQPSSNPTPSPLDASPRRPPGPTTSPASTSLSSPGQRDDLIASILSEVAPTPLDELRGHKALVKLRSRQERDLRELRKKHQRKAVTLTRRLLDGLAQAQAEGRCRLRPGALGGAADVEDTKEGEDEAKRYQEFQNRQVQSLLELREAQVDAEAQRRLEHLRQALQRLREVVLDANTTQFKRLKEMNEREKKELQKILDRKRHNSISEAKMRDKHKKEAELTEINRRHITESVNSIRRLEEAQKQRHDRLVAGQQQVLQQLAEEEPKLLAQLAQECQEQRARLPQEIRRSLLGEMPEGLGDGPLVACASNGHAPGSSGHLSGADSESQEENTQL

Jurkat = test: blockers of NF-kB activation in T cells – Jurkat, luciferase reporter, luminescence, B- and T-cell, dose response (AID 489004); type: functional, cell-based; details: Homo sapiens;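 note: NF-kB luciferase reporter Jurkat cells stimulated with PMA plus ionomycin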
Beta Lactamase = Beta Lactamase (Pseudomonas aeruginosa, UniProt Q932Y6); test: BLA reporter interference, concentration series – BLA reporter cells, FRET fluorescence, artefact control for TLR9-MyD88 binding inhibitor project, dose response (AID 588341); type: cell-based;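 note: cell based assay in CHO-K1 cells stably expressing beta-lactamase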
Beta Lactamase, sequence (Q932Y6 whole entry, the tested form may be a part): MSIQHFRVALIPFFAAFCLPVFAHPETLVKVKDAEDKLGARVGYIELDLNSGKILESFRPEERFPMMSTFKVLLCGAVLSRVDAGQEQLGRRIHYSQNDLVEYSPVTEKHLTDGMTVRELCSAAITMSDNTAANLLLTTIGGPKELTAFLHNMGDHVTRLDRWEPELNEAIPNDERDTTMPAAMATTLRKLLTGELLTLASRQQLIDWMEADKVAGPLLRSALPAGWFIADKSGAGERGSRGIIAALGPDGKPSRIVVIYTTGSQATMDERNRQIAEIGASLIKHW

CHO = CHO cell viability loss, potency – luminescence, cytotoxicity control for TLR9-MyD88 binding inhibitor project, dose response (AID 588339); type: functional, cell-based, hamster; details: Cricetulus griseus;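 note: CHO cells stably coexpressing TLR9 and MyD88 fusions from primary screen; compound exposure lasted 48 hours before viability readout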
[4] = molecular target: Kappa-type opioid receptor (Homo sapiens, UniProt P41145); type: functional
Kappa-type opioid receptor, sequence (P41145 whole entry): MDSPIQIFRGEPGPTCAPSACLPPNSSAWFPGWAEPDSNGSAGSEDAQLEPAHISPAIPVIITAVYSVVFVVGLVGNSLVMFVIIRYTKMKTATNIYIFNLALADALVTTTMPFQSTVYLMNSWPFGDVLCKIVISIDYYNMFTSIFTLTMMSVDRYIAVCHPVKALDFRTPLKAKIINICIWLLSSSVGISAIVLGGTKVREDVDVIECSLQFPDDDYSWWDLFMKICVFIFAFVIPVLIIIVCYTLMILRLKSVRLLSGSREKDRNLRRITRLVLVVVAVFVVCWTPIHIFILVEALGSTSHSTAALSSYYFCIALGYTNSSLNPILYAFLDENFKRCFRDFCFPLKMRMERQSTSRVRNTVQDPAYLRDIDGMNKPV

[5] = molecular target: Small ubiquitin-related modifier 2 (Homo sapiens, UniProt P61956); test: SUMO2 binding disruption by SUMO1 hits – biochemical, FRET, human SUMO2, uHTS hits, selectivity assay for SUMO1 interaction inhibitor project, dose response (AID 624384); type: functional; details: read-out: IC50_Mean
[6] = molecular target: Voltage-gated N-type calcium channel alpha-1B subunit/Amyloid beta A4 precursor protein-binding family A member 1 (Homo sapiens, UniProt Q00975+Q02410); type: protein assay
Voltage-gated N-type calcium channel alpha-1B subunit/Amyloid beta A4 precursor protein-binding family A member 1, sequence (Q00975 whole entry): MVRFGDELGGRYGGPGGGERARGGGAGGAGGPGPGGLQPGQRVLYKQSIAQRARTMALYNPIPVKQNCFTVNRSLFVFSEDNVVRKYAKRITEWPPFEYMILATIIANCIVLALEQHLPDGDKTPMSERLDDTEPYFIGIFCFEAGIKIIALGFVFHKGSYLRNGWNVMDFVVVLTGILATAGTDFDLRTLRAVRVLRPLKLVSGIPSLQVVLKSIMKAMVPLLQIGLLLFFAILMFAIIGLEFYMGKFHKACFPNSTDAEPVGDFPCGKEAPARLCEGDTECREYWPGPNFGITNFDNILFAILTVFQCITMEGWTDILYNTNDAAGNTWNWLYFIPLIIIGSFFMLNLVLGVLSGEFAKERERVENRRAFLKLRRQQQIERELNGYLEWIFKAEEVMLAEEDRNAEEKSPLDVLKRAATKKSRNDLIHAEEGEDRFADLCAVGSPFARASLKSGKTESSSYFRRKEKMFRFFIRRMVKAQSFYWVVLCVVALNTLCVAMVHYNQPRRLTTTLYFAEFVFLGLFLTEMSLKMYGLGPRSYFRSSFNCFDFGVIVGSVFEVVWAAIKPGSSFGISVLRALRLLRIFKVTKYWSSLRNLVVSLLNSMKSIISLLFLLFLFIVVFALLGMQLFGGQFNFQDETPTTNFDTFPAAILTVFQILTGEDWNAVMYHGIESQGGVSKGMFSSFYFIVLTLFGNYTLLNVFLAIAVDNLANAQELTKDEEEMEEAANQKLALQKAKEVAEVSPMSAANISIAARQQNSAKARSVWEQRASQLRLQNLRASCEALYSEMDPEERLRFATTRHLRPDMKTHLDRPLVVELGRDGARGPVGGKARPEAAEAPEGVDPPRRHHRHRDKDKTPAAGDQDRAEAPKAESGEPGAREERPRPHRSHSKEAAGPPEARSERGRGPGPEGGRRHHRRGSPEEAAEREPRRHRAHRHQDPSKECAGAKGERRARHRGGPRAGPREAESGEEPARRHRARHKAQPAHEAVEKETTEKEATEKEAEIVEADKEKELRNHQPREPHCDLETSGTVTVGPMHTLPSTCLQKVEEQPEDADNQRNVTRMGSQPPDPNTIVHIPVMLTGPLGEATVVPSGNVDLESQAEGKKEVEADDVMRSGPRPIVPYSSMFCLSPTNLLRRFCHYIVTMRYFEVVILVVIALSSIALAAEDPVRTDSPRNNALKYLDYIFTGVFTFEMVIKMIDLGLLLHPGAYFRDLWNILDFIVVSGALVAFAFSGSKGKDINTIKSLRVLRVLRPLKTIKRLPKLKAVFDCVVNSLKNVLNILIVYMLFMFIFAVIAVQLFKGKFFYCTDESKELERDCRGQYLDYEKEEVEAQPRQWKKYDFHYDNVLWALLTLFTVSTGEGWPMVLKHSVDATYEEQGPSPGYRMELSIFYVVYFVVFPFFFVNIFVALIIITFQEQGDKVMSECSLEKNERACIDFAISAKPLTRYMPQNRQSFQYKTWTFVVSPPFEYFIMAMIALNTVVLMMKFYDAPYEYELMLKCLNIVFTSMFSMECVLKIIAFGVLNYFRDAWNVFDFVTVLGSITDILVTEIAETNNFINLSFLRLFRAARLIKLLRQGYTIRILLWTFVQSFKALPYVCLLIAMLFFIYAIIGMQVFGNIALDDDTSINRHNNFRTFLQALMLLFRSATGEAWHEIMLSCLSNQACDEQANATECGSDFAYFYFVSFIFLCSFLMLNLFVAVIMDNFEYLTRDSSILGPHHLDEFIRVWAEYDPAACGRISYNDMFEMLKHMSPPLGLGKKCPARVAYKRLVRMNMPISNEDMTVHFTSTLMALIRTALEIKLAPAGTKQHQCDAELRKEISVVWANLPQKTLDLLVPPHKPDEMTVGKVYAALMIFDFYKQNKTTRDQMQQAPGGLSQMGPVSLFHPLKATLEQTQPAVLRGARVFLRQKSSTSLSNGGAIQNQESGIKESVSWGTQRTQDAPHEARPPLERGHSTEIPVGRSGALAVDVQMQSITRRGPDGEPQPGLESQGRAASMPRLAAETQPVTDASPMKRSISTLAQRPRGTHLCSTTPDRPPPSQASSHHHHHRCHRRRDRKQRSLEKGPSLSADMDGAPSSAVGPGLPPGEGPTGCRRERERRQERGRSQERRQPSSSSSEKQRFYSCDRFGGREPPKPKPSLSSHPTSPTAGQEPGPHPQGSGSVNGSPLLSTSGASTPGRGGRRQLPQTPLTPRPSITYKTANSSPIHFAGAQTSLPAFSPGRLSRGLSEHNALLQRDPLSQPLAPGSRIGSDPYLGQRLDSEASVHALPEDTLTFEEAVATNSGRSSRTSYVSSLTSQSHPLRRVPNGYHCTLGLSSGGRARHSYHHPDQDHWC
Voltage-gated N-type calcium channel alpha-1B subunit/Amyloid beta A4 precursor protein-binding family A member 1, sequence (Q02410 whole entry): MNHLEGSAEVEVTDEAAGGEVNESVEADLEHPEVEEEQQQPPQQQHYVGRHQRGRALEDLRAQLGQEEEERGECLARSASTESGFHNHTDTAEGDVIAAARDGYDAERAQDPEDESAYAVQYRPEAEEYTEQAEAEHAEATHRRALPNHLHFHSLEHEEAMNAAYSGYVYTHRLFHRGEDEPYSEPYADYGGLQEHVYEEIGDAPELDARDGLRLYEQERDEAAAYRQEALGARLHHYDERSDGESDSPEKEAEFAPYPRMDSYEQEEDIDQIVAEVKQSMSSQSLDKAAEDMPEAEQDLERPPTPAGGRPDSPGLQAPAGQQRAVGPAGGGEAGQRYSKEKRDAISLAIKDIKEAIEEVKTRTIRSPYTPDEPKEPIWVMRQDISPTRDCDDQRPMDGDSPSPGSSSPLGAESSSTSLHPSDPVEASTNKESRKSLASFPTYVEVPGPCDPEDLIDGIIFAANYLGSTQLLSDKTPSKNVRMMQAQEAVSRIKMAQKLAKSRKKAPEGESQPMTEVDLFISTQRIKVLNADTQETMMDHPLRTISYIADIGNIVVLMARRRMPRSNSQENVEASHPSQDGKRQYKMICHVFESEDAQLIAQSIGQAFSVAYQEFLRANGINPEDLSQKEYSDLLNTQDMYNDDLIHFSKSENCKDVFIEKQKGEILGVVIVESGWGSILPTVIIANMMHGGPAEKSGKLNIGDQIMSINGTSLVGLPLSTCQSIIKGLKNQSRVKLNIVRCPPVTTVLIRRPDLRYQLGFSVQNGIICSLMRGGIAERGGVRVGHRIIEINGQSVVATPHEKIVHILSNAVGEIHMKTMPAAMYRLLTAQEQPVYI

[7] = molecular target: Probable nicotinate-nucleotide adenylyltransferase (Staphylococcus aureus (strain N315), UniProt P65502); type: functional, Staphylococcus aureus subsp. aureus N315;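 note: confirmatory retest of primary uHTS inhibitor hits against NadD over a range of doses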
[8] = molecular target: T3, Tyrosine-protein phosphatase non-receptor type 7 (Homo sapiens, UniProt P35236); test: HTS HePTP Fluorescent Assay using OMFP substrate for In Vitro dose response studies. [Related pubchem assays (depositor defined):AID1059, AID1077, AID1784, AID2068, AID2085, AID435032, AID521]; type: functional
T3 sequence (P35236 whole entry): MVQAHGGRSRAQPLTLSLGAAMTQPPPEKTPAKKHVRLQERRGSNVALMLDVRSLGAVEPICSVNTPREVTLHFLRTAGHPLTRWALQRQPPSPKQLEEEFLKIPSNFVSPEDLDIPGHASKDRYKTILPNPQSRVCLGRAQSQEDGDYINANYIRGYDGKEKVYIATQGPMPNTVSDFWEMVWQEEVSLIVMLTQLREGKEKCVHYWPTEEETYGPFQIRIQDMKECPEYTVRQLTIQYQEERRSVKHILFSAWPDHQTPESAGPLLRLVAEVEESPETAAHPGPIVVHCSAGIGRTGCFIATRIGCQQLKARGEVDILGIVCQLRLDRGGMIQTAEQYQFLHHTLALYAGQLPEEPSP

CCN(CC)CCN1C(=O)c2cccc3cc(N)cc(c23)C1=O
EC50 [1]: 5.13 µM (inconclusive) | AC50 (Keap1/Nrf2): > 52 µM (inactive)

O=S(=O)(O)c1cc(Cl)cc(N=Nc2ccc(O)cc2O)c1O
IC50 [2]: 1.41 µM (active) | IC50 [3]: > 122 µM (inactive)

C=C1C(=O)O[C@@H]2C[C@@H](C)[C@@H]3C=CC(=O)[C@@]3(C)[C@@H](OC(=O)CC(=O)O[C@H]3[C@@H]4C(=C)C(=O)O[C@@H]4C[C@@H](C)[C@@H]4C=CC(=O)[C@]43C)[C@H]12
IC50 (Jurkat): 0.29 µM (active) | IC50 (Beta Lactamase): 17.9 µM (inactive) | IC50 (CHO): 0.147 µM (active) | IC50 [4]: 13.4 µM (active)

O=C(O)c1cccc(-n2cccc2/C=C2/NC(=O)N(c3ccc(Cl)cc3)C2=O)c1
IC50 [3]: > 122 µM (inactive) | IC50 [5]: 0.752 µM (active) | IC50 [6]: 12.1 µM (active) | IC50 [7]: 11.1 µM (active) | IC50 [8]: 6.06 µM (active)
